Source: ChEMBL document CHEMBL1201862, “PubChem BioAssay data set” (2004)
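Briefly, cells in 96-well plates were exposed to five compound concentrations for 48 h, and endpoints were estimated by linear interpolation. GI50: concentration for 50% inhibition of growth.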 Active and inactive are the calls of the source. No stated cut-off is given here; in the data, active = GI50 up to about 1.1 µM and inactive = higher.

How the values were obtained:
Test in all cases: growth of human tumour cells (NCI), 48 h
M14 = tested on: M14
T47D = tested on: T47D
786-0 = tested on: 786-0
U-251 = tested on: U-251
NCI-H23 = tested on: NCI-H23
A549 = tested on: A549
HOP-62 = tested on: HOP-62
SF-295 = tested on: SF-295
DU-145 = tested on: DU-145
IGROV-1 = tested on: IGROV-1
HL-60 = tested on: HL-60
Hs-578T = tested on: Hs-578T
UACC-257 = tested on: UACC-257
PC-3 = tested on: PC-3
CCRF-CEM = tested on: CCRF-CEM
BT-549 = tested on: BT-549
CAKI-1 = tested on: CAKI-1
K562 = tested on: K562
SK-MEL-5 = tested on: SK-MEL-5
MCF7 = tested on: MCF7
NCI-H226 = tested on: NCI-H226
OVCAR-4 = tested on: OVCAR-4
LOX IMVI = tested on: LOX IMVI
SW-620 = tested on: SW-620
EKVX = tested on: EKVX
ACHN = tested on: ACHN
OVCAR-8 = tested on: OVCAR-8
HCT-116 = tested on: HCT-116
KM12 = tested on: KM12
UACC-62 = tested on: UACC-62
HCT-15 = tested on: HCT-15
HT-29 = tested on: HT-29
HCC 2998 = tested on: HCC 2998
COLO 205 = tested on: COLO 205
NCI/ADR-RES = tested on: NCI/ADR-RES
SN12C = tested on: SN12C
RPMI-8226 = tested on: RPMI-8226
MDA-MB-435 = tested on: MDA-MB-435
SK-OV-3 = tested on: SK-OV-3
HOP-92 = tested on: HOP-92
SF-539 = tested on: SF-539
SK-MEL-2 = tested on: SK-MEL-2
TK-10 = tested on: TK-10
SF-268 = tested on: SF-268
MDA-N = tested on: MDA-N
MDA-MB-231 = tested on: MDA-MB-231
MOLT-4 = tested on: MOLT-4
NCI-H460 = tested on: NCI-H460
SK-MEL-28 = tested on: SK-MEL-28
OVCAR-3 = tested on: OVCAR-3
SNB-19 = tested on: SNB-19
UO-31 = tested on: UO-31
RXF 393 = tested on: RXF 393
OVCAR-5 = tested on: OVCAR-5
SR = tested on: SR
NCI-H522 = tested on: NCI-H522
SNB-75 = tested on: SNB-75
Malme-3M = tested on: Malme-3M

With `Cc1ccc(NC(=O)C(=O)CC(=O)c2sc(Nc3c(C)cccc3C)nc2C)cc1C` the GI50 (M14) was > 100 µM (inactive), the GI50 (T47D) was > 100 µM (inactive) and the GI50 (786-0) was > 100 µM (inactive). For the same compound, the GI50 (U-251) was > 100 µM (inactive), the GI50 (NCI-H23) was > 100 µM (inactive) and the GI50 (A549) was > 100 µM (inactive). The GI50 (HOP-62) was > 100 µM (inactive), the GI50 (SF-295) was > 100 µM (inactive) and the GI50 (DU-145) was > 100 µM (inactive). For the same compound, the GI50 (IGROV-1) was > 100 µM (inactive), the GI50 (HL-60) was 55.2 µM (inactive) and the GI50 (Hs-578T) was > 100 µM (inactive). For the same compound, the GI50 (UACC-257) was > 100 µM (inactive), the GI50 (PC-3) was > 100 µM (inactive) and the GI50 (CCRF-CEM) was > 100 µM (inactive). For the same compound, the GI50 (BT-549) was > 100 µM (inactive), the GI50 (CAKI-1) was > 100 µM (inactive) and the GI50 (K562) was > 100 µM (inactive). For the same compound, the GI50 (SK-MEL-5) was > 100 µM (inactive), the GI50 (MCF7) was > 100 µM (inactive) and the GI50 (NCI-H226) was > 100 µM (inactive). For the same compound, the GI50 (OVCAR-4) was > 100 µM (inactive), the GI50 (LOX IMVI) was > 100 µM (inactive) and the GI50 (SW-620) was > 100 µM (inactive). For the same compound, the GI50 (EKVX) was > 100 µM (inactive), the GI50 (ACHN) was > 100 µM (inactive) and the GI50 (OVCAR-8) was > 100 µM (inactive). The GI50 (HCT-116) was > 100 µM (inactive), the GI50 (KM12) was > 100 µM (inactive) and the GI50 (UACC-62) was > 100 µM (inactive). For the same compound, the GI50 (HCT-15) was over 100 µM, the GI50 (HT-29) was > 100 µM (inactive) and the GI50 (HCC 2998) was > 100 µM (inactive). The GI50 (COLO 205) was > 100 µM (inactive), the GI50 (NCI/ADR-RES) was > 100 µM (inactive) and the GI50 (SN12C) was > 100 µM (inactive). The GI50 (RPMI-8226) was > 100 µM (inactive), the GI50 (MDA-MB-435) was > 100 µM (inactive) and the GI50 (SK-OV-3) was > 100 µM (inactive). The GI50 (HOP-92) was > 100 µM (inactive), the GI50 (SF-539) was > 100 µM (inactive) and the GI50 (SK-MEL-2) was > 100 µM (inactive). The GI50 (TK-10) was > 100 µM (inactive), the GI50 (SF-268) was > 100 µM (inactive) and the GI50 (MDA-N) was > 100 µM (inactive). The GI50 (MDA-MB-231) was > 100 µM (inactive), the GI50 (MOLT-4) was > 100 µM (inactive) and the GI50 (NCI-H460) was > 100 µM (inactive). For the same compound, the GI50 (SK-MEL-28) was > 100 µM (inactive), the GI50 (OVCAR-3) was > 100 µM (inactive) and the GI50 (SNB-19) was > 100 µM (inactive). For the same compound, the GI50 (UO-31) was 81.8 µM (inactive), the GI50 (RXF 393) was > 100 µM (inactive) and the GI50 (OVCAR-5) was > 100 µM (inactive). The GI50 (SR) was 37.3 µM (inactive) and the GI50 (NCI-H522) was 71.4 µM (inactive).
With `CCN(CC)CCC(=O)c1ccc(Oc2ccc(F)cc2)cc1` the GI50 (SNB-75) was 26.7 µM (inactive), the GI50 (M14) was 18.3 µM (inactive) and the GI50 (T47D) was 20 µM (inactive). The GI50 (786-0) was 14.8 µM (inactive), the GI50 (U-251) was 17.1 µM (inactive) and the GI50 (NCI-H23) was 20.6 µM (inactive). The GI50 (Malme-3M) was 18.5 µM (inactive), the GI50 (A549) was > 100 µM (inactive) and the GI50 (HOP-62) was 22.3 µM (inactive). For the same compound, the GI50 (SF-295) was 39.4 µM (inactive), the GI50 (DU-145) was 23.8 µM (inactive) and the GI50 (IGROV-1) was 20.3 µM (inactive). The GI50 (Hs-578T) was 24.2 µM (inactive), the GI50 (UACC-257) was 17.8 µM (inactive) and the GI50 (PC-3) was 24 µM (inactive). For the same compound, the GI50 (CCRF-CEM) was 20.6 µM (inactive), the GI50 (BT-549) was 18.3 µM (inactive) and the GI50 (CAKI-1) was 17.1 µM (inactive). For the same compound, the GI50 (K562) was 38.3 µM (inactive), the GI50 (MCF7) was 17.9 µM (inactive) and the GI50 (NCI-H226) was > 100 µM (inactive). For the same compound, the GI50 (OVCAR-4) was 39.4 µM (inactive), the GI50 (LOX IMVI) was 15.4 µM (inactive) and the GI50 (SW-620) was 18.4 µM (inactive). For the same compound, the GI50 (EKVX) was 20.6 µM (inactive), the GI50 (ACHN) was 18.4 µM (inactive) and the GI50 (OVCAR-8) was 22.9 µM (inactive). For the same compound, the GI50 (HCT-116) was 16.6 µM (inactive), the GI50 (KM12) was 12.2 µM (inactive) and the GI50 (UACC-62) was 17.9 µM (inactive). The GI50 (HCT-15) was 18.2 µM, the GI50 (HT-29) was 19.8 µM (inactive) and the GI50 (HCC 2998) was 20 µM (inactive). For the same compound, the GI50 (COLO 205) was 19.2 µM (inactive), the GI50 (NCI/ADR-RES) was 26.2 µM (inactive) and the GI50 (SN12C) was 18.2 µM (inactive). The GI50 (RPMI-8226) was 4.57 µM (inactive), the GI50 (MDA-MB-435) was 17.5 µM (inactive) and the GI50 (SK-OV-3) was > 100 µM (inactive). The GI50 (HOP-92) was 18.3 µM (inactive), the GI50 (SF-539) was 17.3 µM (inactive) and the GI50 (SK-MEL-2) was 46.2 µM (inactive). For the same compound, the GI50 (TK-10) was 17.5 µM (inactive), the GI50 (SF-268) was 18.3 µM (inactive) and the GI50 (MDA-N) was 18 µM (inactive). For the same compound, the GI50 (MDA-MB-231) was 17.1 µM (inactive), the GI50 (MOLT-4) was 20.2 µM (inactive) and the GI50 (SK-MEL-28) was 16.4 µM (inactive). For the same compound, the GI50 (OVCAR-3) was 17.1 µM (inactive), the GI50 (SNB-19) was 18 µM (inactive) and the GI50 (RXF 393) was 16.2 µM (inactive). The GI50 (OVCAR-5) was 17.9 µM (inactive) and the GI50 (SR) was 12.5 µM (inactive).
